# Values quoted from earlier work as cited in PMC12022903, “Evaluation of drug-drug interaction between Suraxavir Marboxil (GP681) and itraconazole, and assessment of the impact of gene polymorphism” (Frontiers in Pharmacology, 2025).
# Columns and labels:
# [1] = system: BCRP; design: method as in unpublished data; settings: preclinical studies; ref unpublished data; cited from earlier work
# [2] = system: plasma protein; design: method as in unpublished data; settings: preclinical studies; ref unpublished data; cited from earlier work
# [3] = design: method as in Phase I study; settings: ref Phase I study, cited from earlier work
# [4] = system: influenza virus; design: method as in preclinical studies; settings: ref preclinical studies; cited from earlier work
# [5] = system: avian influenza virus strains; settings: ref unpublished data; cited from earlier work
smiles,measurement,setting,value
O=C1c2c(O)c(=O)ccn2N([C@@H]2c3ccccc3SCc3c2ccc(F)c3F)[C@@H]2COC3(CC3)CN12 [GP1707D07],substrate for the BCRP transporter,[1],"Neither Suraxavir Marboxil (GP681) nor its metabolite, GP1707D07, serves as substrates"
same,plasma protein binding rate,[2],high plasma protein binding rate
same,C24,[3]; all tested dose cohorts (20 mg–80 mg),> 6.87 ng/mL
same,time maintained above the target concentration (6.87 ng/mL),[3]; dose cohorts 20 mg–80 mg,72 to 136 h
same,estimated clinically effective concentration (antiviral threshold),[4],6.87 ng/mL
same,in vitro antiviral activity (average EC50 and EC90) compared with baloxavir,[5],better in vitro antiviral activity
same,in vitro inhibitory activity against avian influenza virus strains,[5],inhibitory activity against all tested avian influenza virus strains
